Results on 26 molecules are retold here after ChEMBL document CHEMBL1145504, “Sensitivity of monkey B virus (Cercopithecine herpesvirus 1) to antiviral drugs: role of thymidine kinase in antiviral activities of substrate analogs and acyclonucleosides” (Antimicrob Agents Chemother, 2007).

What is called EC50 is the midpoint of the concentration-response curve. Broadly, the CC50 is the concentration at which the toxic effect on the cells reaches its halfway point. By IC50 is commonly meant the concentration that inhibits the measured activity by half. The term Km denotes the concentration of substrate that gives half-maximal velocity.

Values joined by “and” are separate entries in the source; they are usually repeats but may differ in a detail not shown here. Identical values can stand only once. Active and inactive are the calls of the source. No cut-off for these calls is given here.

For one data set, the system named is Human alphaherpesvirus 1. In words: microbe, parasite or virus in culture. The settings on record: Human alphaherpesvirus 1, F, Vero. The data set is classed as functional, organism-based.
Data set [1] concerns Macacine alphaherpesvirus 1. In words: microbe, parasite or virus in culture. In kind it is functional, organism-based. The settings on record: Macacine alphaherpesvirus 1, Vero.
Data set [2] in a line: Cytotoxicity against african green monkey Vero cells after 2 days. The settings on record: chlorocebus sabaeus. In kind it is cell-based.
Data set [3] deals with T1, Thymidine kinase (Macacine herpesvirus 1) (UniProt A3RLP8).
T1 sequence (whole entry): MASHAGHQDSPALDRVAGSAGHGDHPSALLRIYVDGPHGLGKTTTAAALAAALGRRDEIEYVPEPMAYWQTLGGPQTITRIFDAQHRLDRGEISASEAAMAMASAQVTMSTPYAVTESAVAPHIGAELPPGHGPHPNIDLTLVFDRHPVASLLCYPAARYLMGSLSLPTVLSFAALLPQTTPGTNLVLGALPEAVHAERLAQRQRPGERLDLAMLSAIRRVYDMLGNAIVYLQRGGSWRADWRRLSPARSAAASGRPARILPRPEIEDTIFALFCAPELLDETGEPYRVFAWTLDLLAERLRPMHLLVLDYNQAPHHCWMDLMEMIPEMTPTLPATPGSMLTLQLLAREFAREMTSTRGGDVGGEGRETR
Kind of data set: Activity of Herpes B virus recombinant thymidine kinase at 100 uM. To be noted: Macacine alphaherpesvirus 1.

The subject of data set [4] is Macacine alphaherpesvirus 1. In words: microbe, parasite or virus in culture. The data set is classed as functional, organism-based. The settings on record: Macacine alphaherpesvirus 1, Vero. This is another data set of the same source.
Data set [5] deals with T1, Thymidine kinase (Macacine herpesvirus 1). The settings on record: Macacine alphaherpesvirus 1; 100 uM.
For another data set, the target named is T2, Thymidine kinase (Macacine herpesvirus 1, UniProt A3RLP8).
T2 sequence (A3RLP8 whole entry): T1 sequence (whole entry)

The target of data set [6] is T1, Thymidine kinase (Macacine herpesvirus 1). In words: Activity of Herpes B virus recombinant thymidine kinase at 1 mM. The settings on record: Macacine alphaherpesvirus 1.
The subject of data set [7] is Macacine alphaherpesvirus 1. In words: microbe, parasite or virus in culture. The data set is classed as functional, organism-based. To be noted: Macacine alphaherpesvirus 1, Vero. The source holds these as a separate data set.
Substrate in data set [8]: O=c1[nH]c(Nc2ccccc2)nc2c1ncn2CCCCO
Kind of data set: (§1) Activity of Herpes B virus recombinant thymidine kinase. To be noted: Macacine alphaherpesvirus 1.

Substrate in data set [9]: Cc1cn([C@H]2C[C@H](O)[C@@H](CO)O2)c(=O)[nH]c1=O
Described as §1. The settings on record: Macacine alphaherpesvirus 1.

Substrate in data set [10]: Cc1cn([C@H]2C[C@H](O)[C@@H](CO)O2)c(=O)[nH]c1=O
The settings on record: Human alphaherpesvirus 1.

On to `O=c1[nH]c(=O)n([C@H]2C[C@H](O)[C@@H](CO)O2)cc1I` [IDOXURIDINE], for which the values for the EC50 (with Human alphaherpesvirus 1; in data set [1]; in data set [4]) were 2.8 µM, 8.5 µM and 11.2 µM, respectively. Besides, in data set [2], the CC50 at 48 h amounted to 6.8 µM. Also, in [3], the Activity was 58%.

Consider `Cc1cc(=O)[nH]c(=O)n1[C@@H]1O[C@H](CO)[C@@H](O)[C@H]1O`, for which, in data set [5], the result was inactive.

Turning to `Nc1nc2c(ncn2CCC(CO)CO)c(=O)[nH]1` [PENCICLOVIR], the half-maximal inhibitory concentration (IC50) against Thymidine kinase came out at 84.4 µM. For the same molecule, the CC50 at 48 h in [2] is above 790 µM.

For the molecule `O=c1[nH]c(Nc2ccccc2)nc2c1ncn2CCCCO`, the half-maximal effective concentration (EC50) with Human alphaherpesvirus 1 is 330 µM; in data set [1], above 330 µM; in data set [4] it was above 330 µM. This molecule came in with a CC50 at 48 h in data set [2] above 660 µM. The Activity in [3] came to 200%.

`O=c1[nH]c(=O)n(C2C[C@H](O)[C@@H](CO)O2)cc1I` (single isomer, unassigned): the Activity in data set [3] was found to be 94%.

Regarding `O=c1[nH]c(=O)n([C@H]2C[C@H](O)[C@@H](CO)O2)cc1C(F)(F)F` [TRIFLURIDINE], the figures for the EC50 (in the data set on Human alphaherpesvirus 1; in data set [1]; in data set [4]) were below 1.7 µM, 3.4 µM and 1.7 µM, respectively. In addition, the concentration for half-maximal inhibition (IC50) against Thymidine kinase amounted to 2 µM. This molecule had a CC50 at 48 h in data set [2] of 50.6 µM. In data set [3], the Activity came out at 55%.

In the case of `Nc1nc(O)c2ncn(COC(CO)CO)c2n1` [GANCICLOVIR], at Thymidine kinase, it took 800 µM to reach half-maximal inhibition (IC50). In [2], this molecule displayed a CC50 at 48 h of 666 µM.

For `Cc1cn([C@H]2C[C@H](O)[C@@H](CO)O2)c(=O)[nH]c1=O` (stereo in doubt; form 2), the Activity in [3] worked out at 100%.

On to `Nc1ccn(C[C@@H](CO)OCP(=O)(O)O)c(=O)n1` [CIDOFOVIR], for which the EC50 worked out at 14.4 µM in the data set with Human alphaherpesvirus 1, 21.6 µM in data set [1] and 28.9 µM in data set [4]. The molecule further had a half-inhibitory concentration (IC50) on Thymidine kinase of 900 µM. Also, the half-maximal cytotoxic concentration (CC50) at 48 h in data set [2] was above 720 µM. The result in data set [3] and in data set [6] was inactive.

Take `O=c1ccn([C@@H]2O[C@H](CO)[C@H](O)[C@@H]2O)c(=O)[nH]1`: in data set [5], the result was inactive.

`Nc1nc2c(ncn2COC(CO)CO)c(=O)[nH]1` [GANCICLOVIR]: the half-maximal effective concentration (EC50) came to 0.7 µM in the data set with Human alphaherpesvirus 1, 23.5 µM in [1], 14.5 µM in data set [4] and 19.2 µM in data set [7]. In addition, the outcome in [3] and in [6] was inactive.

For the molecule `O=c1[nH]c(=O)n([C@H]2C[C@H](O)[C@@H](CO)O2)cc1/C=C/Br` [BRIVUDINE], the concentration for a half-maximal effect (EC50) is 0.12 µM with Human alphaherpesvirus 1, above 300 µM in [1] and above 300 µM in data set [4]. Besides, in data set [2], the CC50 at 48 h is above 600 µM. Further, the outcome in [3] and in data set [6] was inactive.

Turning to `O=C(O)P(=O)(O)O` [FOSCARNET], the concentration giving a half-maximal response (EC50) with Human alphaherpesvirus 1 was 250 µM; in data set [1], 250 µM; in data set [4] it was above 500 µM. The half-maximal cytotoxic concentration (CC50) at 48 h in data set [2] is above 1 µM.

At Thymidine kinase, `CCCc1cn([C@H]2C[C@H](O)[C@@H](CO)O2)c(=O)[nH]c1=O` displayed a 50% inhibitory concentration (IC50) of 4.2 µM. The Activity in data set [3] was 31%.

Consider `Nc1nc(O)c2ncn(CCC(CO)CO)c2n1` [PENCICLOVIR], for which the EC50 in the data set with Human alphaherpesvirus 1 was 4.7 µM; in data set [1] it was 25.3 µM; in [4], 17 µM; in data set [7] it was 17.3 µM. The Activity in data set [3] stood at 72%.

Regarding `CCc1cn([C@@H]2C[C@H](O)[C@@H](CO)O2)c(=O)[nH]c1=O`, at Thymidine kinase, inhibition was half-maximal at 52 µM (IC50).

Regarding `O=c1[nH]c(=O)n(C2C[C@H](O)[C@@H](CO)O2)cc1/C=C/Br` (single isomer, unassigned), the outcome in [3] and in data set [6] was inactive.

For the molecule `Nc1nc2c(ncn2COCCO)c(=O)[nH]1` [ACYCLOVIR], the half-maximal effective concentration (EC50) with Human alphaherpesvirus 1 is 1.4 µM; in data set [1], 118 µM; in data set [4], 112 µM; in data set [7], 47.5 µM. The cytotoxic concentration (CC50) at 48 h in data set [2] was above 890 µM. Further, the outcome in [3] and in [6] was inactive.

Regarding `Nc1nc2c(ncn2CCCCO)c(=O)[nH]1`, on Thymidine kinase, the IC50 was determined as 177 µM. In addition, in data set [3], the Activity is 94%.

On Thymidine kinase, `CN(C)CCCCn1cnc2c(O)nc(Nc3ccccc3)nc21` registered a half-maximal inhibitory concentration (IC50) of 1.2 µM.

As to `CCc1cn([C@H]2C[C@H](O)[C@@H](CO)O2)c(=O)[nH]c1=O` [EDOXUDINE], the EC50 with Human alphaherpesvirus 1 worked out at 2.1 µM; in [1], 48 µM; in data set [4], 37.4 µM; in data set [7] it was 13.3 µM. The IC50 against Thymidine kinase came out at 0.15 µM. Besides, the CC50 at 48 h in [2] was above 780 µM. Besides, the Activity in data set [3] stood at 82%.

Turning to `Nc1ncnc2c1ncn2[C@@H]1O[C@H](CO)[C@@H](O)[C@@H]1O` [VIDARABINE], the EC50 came to 7 µM in the data set with Human alphaherpesvirus 1, 35 µM in data set [1] and 28 µM in [4]. In addition, in data set [2], half-maximal cytotoxicity (CC50 at 48 h) was put at 38 µM. Also, the outcome in [5] was inactive.

For the molecule `O=c1[nH]c(Nc2cccc(C(F)(F)F)c2)nc2nc[nH]c12`, inhibition against Thymidine kinase was half-maximal at 3.5 µM (IC50).

Turning to `Cc1cn([C@H]2C[C@H](O)[C@@H](CO)O2)c(=O)[nH]c1=O` (stereo in doubt; form 1), the Activity in data set [3] was found to be 130%.

B1: Thymidine kinase (Macacine herpesvirus 1), A3RLP8 (protein)
chain: T1 sequence (whole entry)
As for B1, the Km was 7.4 µM in [8]; 0.7 µM and 0.65 µM in [9]. The Vmax (nmol/hr/microg) in data set [8] was 3.9; in data set [9], 0.2 and 0.15.

B2: Thymidine kinase (Human alphaherpesvirus 1), Q9QNF7 (protein)
chain: MASYPCHQHASAFDQAARSRGHSNRRTALRPRRQQEATEVRLEQKMPTLLRVYIDGPHGMGKTTTTQLLVALGSRDDIVYVPEPMTYWQVLGASETIANIYTTQHRLDQGEISAGDAAVVMTSAQITMGMPYAVTDAVLAPHIGGEAGSSHAPPPALTLIFDRHPIAALLCYPAARYLMGSMTPQAVLAFVALIPPTLPGTNIVLGALPEDRHIDRLAKRQRPGERLDLAMLAAIRRVYGLLANTVRYLQGGGSWREDWGQLSGTAVPPQGAEPQSNAGPRPHIGDTLFTLFRAPELLAPNGDLYNVFAWALDVLAKRLRPMHVFILDYDQSPAGCRDALLQLTSGMVQTHVTTPGSIPTICDLARTFAREMGEAN
With B2, the Km in data set [10] was determined as 1 µM.
